According to ChEMBL document CHEMBL5614395 (Eur J Med Chem, 2024):

Test: in vitro
Settings: human, Caco-2

| Compound | Papp A→B |
| --- | --- |
| COc1cc(-n2ncc3c(-c4cccc(-c5ccc(CN[C@H]6C[C@@H](O)C6)c(OC)n5)c4Cl)cccc32)cc(OC)c1CN1CC(C(=O)O)C1 | 0.1 ×10⁻⁶ cm/s |
| COc1cc(-n2ncc3c(-c4cccc(-c5ccc(CN[C@H]6C[C@@H](O)C6)c(OC)n5)c4Cl)cccc32)cc(OC)c1CN(C)C12CCC(C(=O)O)(CC1)CC2 | 0.4 ×10⁻⁶ cm/s |
| COc1cc(-n2ncc3c(-c4cccc(-c5ccc(CN(C)C67CCC(C(=O)O)(CC6)CC7)c(OC)n5)c4Cl)cccc32)cc(OC)c1CN(C)[C@H]1C[C@H](O)C1 | 3 ×10⁻⁶ cm/s |
